The values that follow come from patent publication US20240262804A1, “NITROGEN-CONTAINING HETEROCYCLIC KETONES, PREPARATION METHODS AND MEDICINAL USES THEREOF” (Hansoh Bio LLC, priority 2021, published 2024).

Chain of bovine cardiac myosin (Q9BE39 whole entry): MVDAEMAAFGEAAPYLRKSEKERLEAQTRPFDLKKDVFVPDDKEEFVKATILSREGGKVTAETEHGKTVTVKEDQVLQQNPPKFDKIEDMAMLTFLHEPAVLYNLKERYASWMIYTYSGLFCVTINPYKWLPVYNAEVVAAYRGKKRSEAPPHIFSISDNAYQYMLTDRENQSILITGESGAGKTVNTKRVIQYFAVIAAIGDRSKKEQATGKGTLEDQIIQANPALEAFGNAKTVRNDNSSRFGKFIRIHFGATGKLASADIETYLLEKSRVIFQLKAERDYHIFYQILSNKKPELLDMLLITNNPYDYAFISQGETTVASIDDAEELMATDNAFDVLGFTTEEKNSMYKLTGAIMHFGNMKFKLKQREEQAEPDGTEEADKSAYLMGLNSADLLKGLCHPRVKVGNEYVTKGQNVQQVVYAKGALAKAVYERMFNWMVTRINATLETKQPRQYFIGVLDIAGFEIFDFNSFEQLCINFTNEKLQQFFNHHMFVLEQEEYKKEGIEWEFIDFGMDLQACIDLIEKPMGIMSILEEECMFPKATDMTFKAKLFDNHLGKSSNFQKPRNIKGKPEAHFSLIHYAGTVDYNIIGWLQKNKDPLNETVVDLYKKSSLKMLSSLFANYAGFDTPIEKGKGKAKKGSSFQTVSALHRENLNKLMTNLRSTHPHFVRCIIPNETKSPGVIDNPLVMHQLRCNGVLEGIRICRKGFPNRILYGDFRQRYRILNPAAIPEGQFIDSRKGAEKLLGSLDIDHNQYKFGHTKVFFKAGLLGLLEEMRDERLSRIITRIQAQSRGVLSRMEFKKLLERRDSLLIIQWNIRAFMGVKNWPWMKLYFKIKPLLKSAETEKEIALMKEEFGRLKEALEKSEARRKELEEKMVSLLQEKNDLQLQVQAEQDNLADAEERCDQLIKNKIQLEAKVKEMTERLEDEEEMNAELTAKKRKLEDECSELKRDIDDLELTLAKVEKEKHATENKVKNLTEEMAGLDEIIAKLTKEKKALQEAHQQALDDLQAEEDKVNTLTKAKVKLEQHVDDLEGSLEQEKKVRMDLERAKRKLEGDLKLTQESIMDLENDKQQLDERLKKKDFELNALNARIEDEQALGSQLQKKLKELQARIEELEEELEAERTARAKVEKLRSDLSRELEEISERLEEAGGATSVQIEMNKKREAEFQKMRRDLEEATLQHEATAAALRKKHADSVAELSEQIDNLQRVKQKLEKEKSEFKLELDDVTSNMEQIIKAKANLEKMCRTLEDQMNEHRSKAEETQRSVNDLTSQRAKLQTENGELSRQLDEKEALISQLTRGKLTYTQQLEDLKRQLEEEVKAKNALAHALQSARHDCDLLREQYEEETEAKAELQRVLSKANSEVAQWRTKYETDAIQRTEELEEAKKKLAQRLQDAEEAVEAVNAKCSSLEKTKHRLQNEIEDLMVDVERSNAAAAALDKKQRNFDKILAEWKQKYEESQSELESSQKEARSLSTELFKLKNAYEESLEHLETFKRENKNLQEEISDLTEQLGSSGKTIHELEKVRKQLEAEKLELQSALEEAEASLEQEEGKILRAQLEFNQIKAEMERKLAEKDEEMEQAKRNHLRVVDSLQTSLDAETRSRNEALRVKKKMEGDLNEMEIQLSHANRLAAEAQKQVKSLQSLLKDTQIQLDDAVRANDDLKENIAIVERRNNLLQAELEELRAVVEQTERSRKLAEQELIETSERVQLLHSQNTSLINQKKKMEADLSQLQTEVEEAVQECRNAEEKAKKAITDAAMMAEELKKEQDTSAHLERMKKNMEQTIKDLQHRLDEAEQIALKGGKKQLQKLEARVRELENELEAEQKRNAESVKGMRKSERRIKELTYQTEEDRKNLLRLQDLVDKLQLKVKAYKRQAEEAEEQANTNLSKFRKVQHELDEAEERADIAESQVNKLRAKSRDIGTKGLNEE
Chain of bovine cardiac myosin (P85100 whole entry partner): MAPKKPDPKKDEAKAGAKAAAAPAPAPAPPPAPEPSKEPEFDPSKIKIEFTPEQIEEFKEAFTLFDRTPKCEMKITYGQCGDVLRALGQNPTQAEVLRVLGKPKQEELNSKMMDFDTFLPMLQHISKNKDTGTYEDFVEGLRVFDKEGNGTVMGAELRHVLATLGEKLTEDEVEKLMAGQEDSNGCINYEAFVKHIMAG
Chain of bovine cardiac myosin (Q3SZE5 whole entry partner): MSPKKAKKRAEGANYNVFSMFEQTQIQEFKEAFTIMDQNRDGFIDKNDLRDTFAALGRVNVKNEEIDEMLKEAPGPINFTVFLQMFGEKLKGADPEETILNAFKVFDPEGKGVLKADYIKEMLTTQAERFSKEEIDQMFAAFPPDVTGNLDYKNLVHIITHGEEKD

The target of this experiment is bovine cardiac myosin (Bos taurus (Bovine), UniProt Q9BE39). Nature of the experiment: Myosin inhibitory potency: PK/LDH-coupled ATPase assay on bovine skinned cardiac myofibrils. Type of experiment: biochemical. Conditions: pCa=6.25, 50 μM ATP, 25° C., read-out: myosin inhibition activity IC50. The gist of the method:
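Bovine left-ventricle skinned myofibrils (1 mg/mL) in PM12 buffer pH 6.8 at pCa 6.25, 50 μM ATP, PK/LDH-coupled NADH depletion read at 340 nm, 25 °C.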
Consider `Cc1cccc([C@@H](Nc2nc(=O)n(C3CCOCC3)c(=O)[nH]2)C(F)(F)F)c1` [Example 279], for which the IC50 came to 720 nM.

On to `C[C@H](O)c1cccc([C@H](C)Nc2nc(=O)n(C3CCOCC3)c(=O)[nH]2)c1` [Example 344], for which the IC50 is 550 nM.

For `Cc1cc([C@H](C)Nc2nc(=O)n([C@@H]3CCOC[C@@H]3F)c(=O)[nH]2)ccc1F` [Example 296], the IC50 came to 860 nM.

`O=c1nc(NC2CCc3ccccc32)[nH]c(=O)n1C1CCOCC1` (stereo not drawn) [Example 149]: the IC50 was 5500 nM.

Turning to `COC(=O)N1CCC(n2c(=O)nc(N[C@@H](C)c3cccc(C)c3)[nH]c2=O)CC1` [Example 242], the IC50 came to 1230 nM.

As to `Cc1ccc([C@H](C)Nc2nc(=O)n(C3CCOCC3)c(=O)[nH]2)cc1C` [Example 153], the IC50 was 1230 nM.

As to `C[C@H](Nc1nc(=O)n(C2CCOCC2)c(=O)[nH]1)c1cccc(N2CCCCC2)c1` [Example 216], the IC50 worked out at 1300 nM.

On to `CC(Nc1nc(=O)n(C2CCOCC2)c(=O)[nH]1)c1cc(F)ccc1F` (stereo not drawn) [Example 127], for which the IC50 is 1830 nM.

`C[C@H](Nc1nc(=O)n([C@H](C)C(F)(F)F)c(=O)[nH]1)C1CCCCC1` [Example 15]: the IC50 was 2160 nM.

`O=c1nc(N[C@H](c2ccc(F)cc2F)C(F)F)[nH]c(=O)n1C1CCOCC1` [Example 263]: the IC50 worked out at 2310 nM.

`Cc1cccc([C@H](C)Nc2nc(=O)n(C3CCOC(C)C3)c(=O)[nH]2)c1` (stereo partly drawn) [Example 100]: the IC50 was 5410 nM.

Take `Cc1ccc(F)c([C@H](C)Nc2nc(=O)n([C@H]3CCOC[C@H]3F)c(=O)[nH]2)c1` [Example 314]: the IC50 is 770 nM.

Consider `CC(Nc1nc(=O)n(C2CCOCC2)c(=O)[nH]1)c1cccc(CO)c1` (stereo not drawn) [Example 139], for which the IC50 was 6650 nM.

In the case of `CC(C)c1cccc([C@H](C)Nc2nc(=O)n(C3CCOCC3)c(=O)[nH]2)c1` [Example 308], the IC50 is 1000 nM.

As to `COC(=O)c1ccc([C@H](C)Nc2nc(=O)n(C3CCOCC3)c(=O)[nH]2)cc1` [Example 247], the IC50 was determined as 2420 nM.

Regarding `C[C@H](Nc1nc(=O)n(C2CCOCC2)c(=O)[nH]1)c1cccc(C2CCN(CC(F)(F)F)CC2)c1` [Example 290], the IC50 amounted to 2210 nM.

Consider `C[C@@H](Nc1nc(=O)n(C2CCOCC2)c(=O)[nH]1)c1ccc2c(c1)OC(F)(F)O2` [Example 318], for which the IC50 was 1050 nM.

For the compound `CC(C#N)c1cccc([C@H](C)Nc2nc(=O)n(C3CCOCC3)c(=O)[nH]2)c1` (stereo partly drawn) [Example 277], the IC50 was 240 nM.

Consider `C[C@H](Nc1nc(=O)n(C2CCOCC2)c(=O)[nH]1)c1cccc(-n2ccnc2)c1` [Example 200], for which the IC50 came out at 1780 nM.

Turning to `Cc1cn(-c2cccc([C@H](C)Nc3nc(=O)n(C4CCOCC4)c(=O)[nH]3)c2)cn1` [Example 205], the IC50 turned out to be 3840 nM.

For `CC(=O)N1CCC(n2c(=O)nc(N[C@@H](C)c3cccc(C)c3)[nH]c2=O)CC1` [Example 243], the IC50 turned out to be 880 nM.

With `C[C@H](Nc1nc(=O)n(C2CCOCC2)c(=O)[nH]1)c1cccc(-c2ccncc2)c1` [Example 221], the IC50 came out at 2530 nM.

In the case of `CO[C@H]1COCC[C@@H]1n1c(=O)nc(N[C@@H](C)c2cc(C)ccc2F)[nH]c1=O` [Example 282], the IC50 was found to be 900 nM.

On to `Cc1nccn1-c1cccc(C(C)Nc2nc(=O)n(C3CCOCC3)c(=O)[nH]2)c1` (stereo not drawn) [Example 219], for which the IC50 is 3380 nM.

With `CC(=O)N1CCC(n2c(=O)nc(N[C@@H](C)C3CCCCC3)[nH]c2=O)CC1` [Example 236], the IC50 turned out to be 2650 nM.

Take `CC(Nc1nc(=O)n(C2CCOCC2)c(=O)[nH]1)c1ccc(F)cc1` (stereo not drawn) [Example 125]: the IC50 came out at 8400 nM.

As for `Cc1cccc([C@H](C)Nc2nc(=O)n(C3CCN(CCF)CC3)c(=O)[nH]2)c1` [Example 301], the IC50 stood at 800 nM.

Consider `Cc1cc([C@H](C)Nc2nc(=O)n(C3CCOCC3)c(=O)[nH]2)ccc1Cl` [Example 330], for which the IC50 came to 1080 nM.

`COC[C@H](Nc1nc(=O)n(C2CCOCC2)c(=O)[nH]1)c1cccc(C)c1` [Example 294]: the IC50 was 880 nM.

Turning to `CC(C)n1c(=O)nc(N[C@H](c2cccc(C(O)C3CC3)c2)C(F)F)[nH]c1=O` (stereo partly drawn) [Example 265], the IC50 is 1100 nM.

`C[C@H](Nc1nc(=O)n([C@H](C)C(F)(F)F)c(=O)[nH]1)c1ccc(OC(F)(F)F)cc1` [Example 174]: the IC50 worked out at 2820 nM.

`CO[C@H]1COCC[C@@H]1n1c(=O)nc(N[C@@H](C)c2cccc(C)c2)[nH]c1=O` [Example 347]: the IC50 was 2330 nM.

For `C[C@H](Nc1nc(=O)n(C2CCN(C)CC2)c(=O)[nH]1)C1CCCCC1` [Example 59], the IC50 is 2590 nM.

Consider `CCc1ccc([C@H](C)Nc2nc(=O)n(C3CCOCC3)c(=O)[nH]2)cc1` [Example 186], for which the IC50 was found to be 740 nM.

In the case of `C[C@H](Nc1nc(=O)n([C@H]2CCOC[C@H]2F)c(=O)[nH]1)c1ccc(F)cc1F` [Example 281], the IC50 was determined as 2260 nM.

With `C=Cc1ccc(C(C)Nc2nc(=O)n(C3CCOCC3)c(=O)[nH]2)cc1` (stereo not drawn) [Example 141], the IC50 was 6790 nM.

For `C[C@H](Nc1nc(=O)n(C2(C)CCCC2)c(=O)[nH]1)C1CCCCC1` [Example 90], the IC50 came to 8720 nM.

`Cc1c(-c2cccc([C@H](C)Nc3nc(=O)n(C4CCOCC4)c(=O)[nH]3)c2)cnn1C` [Example 197]: the IC50 worked out at 2040 nM.

Regarding `C[C@H](Nc1nc(=O)n(C2CCC(O)C2)c(=O)[nH]1)C1CCCCC1` (stereo partly drawn) [Example 232], the IC50 stood at 8350 nM.

For the compound `CC(Nc1nc(=O)n(C2CCNCC2)c(=O)[nH]1)c1ccccc1F` (stereo not drawn) [Example 190], the IC50 was 4650 nM.

Turning to `Cc1cccc([C@H](C)Nc2nc(=O)n(C3CCCC3)c(=O)[nH]2)c1` [Example 94], the IC50 worked out at 1750 nM.

On to `C[C@H](Nc1nc(=O)n(C2CCOCC2)c(=O)[nH]1)c1cccc(C2=CCCCC2)c1` [Example 331], for which the IC50 was determined as 1110 nM.

Take `Cc1ccc(C(C)Nc2nc(=O)n(C3CCNCC3)c(=O)[nH]2)cc1` (stereo not drawn) [Example 194]: the IC50 was determined as 4470 nM.

On to `C[C@H](Nc1nc(=O)n(C2CCOCC2)c(=O)[nH]1)c1cccc(Cl)c1F` [Example 11], for which the IC50 worked out at 1370 nM.

Take `C[C@H](Nc1nc(=O)n(C2CCOCC2)c(=O)[nH]1)c1ccc(Cl)cc1` [Example 251]: the IC50 is 950 nM.

In the case of `C[C@H](Nc1nc(=O)n(C2CCOCC2)c(=O)[nH]1)c1ccc(C(F)F)cc1` [Example 157], the IC50 amounted to 1000 nM.

Turning to `COc1ccccc1[C@H](C)Nc1nc(=O)n(C2CCOCC2)c(=O)[nH]1` [Example 150], the IC50 stood at 6630 nM.

For the compound `Cc1cccc([C@H](C)Nc2nc(=O)n([C@@H]3CCOC[C@@H]3F)c(=O)[nH]2)c1` [Example 315], the IC50 came to 1470 nM.

Consider `C[C@H](Nc1nc(=O)n(C2CCOCC2)c(=O)[nH]1)c1cccc(CC(F)(F)F)c1` [Example 274], for which the IC50 stood at 390 nM.

`C[C@H](Nc1nc(=O)n(C2CCOCC2)c(=O)[nH]1)c1cccc(-c2cncnc2)c1` [Example 223]: the IC50 was determined as 890 nM.

In the case of `CC(=O)N1CCC(c2cccc([C@H](C)Nc3nc(=O)n(C(C)C)c(=O)[nH]3)c2)CC1` [Example 289], the IC50 came out at 1800 nM.

Turning to `COc1ccc([C@H](C)Nc2nc(=O)n(C3CCOCC3)c(=O)[nH]2)cc1` [Example 48], the half-inhibitory concentration (IC50) stood at 1130 nM.

Take `C[C@H](Nc1nc(=O)n(C2CCOCC2)c(=O)[nH]1)c1ccc(C(C)(C)C)cc1` [Example 160]: the IC50 is 1600 nM.

`Cc1ccc(F)c([C@H](C)Nc2nc(=O)n([C@@H](C3CC3)C(F)(F)F)c(=O)[nH]2)c1` [Example 312]: the IC50 amounted to 1440 nM.

`C[C@H](Nc1nc(=O)n(C2CCOCC2)c(=O)[nH]1)c1ccc(Cl)c(F)c1` [Example 166]: the IC50 was 5370 nM.

Turning to `C[C@H](Nc1nc(=O)n(C2CCCC2)c(=O)[nH]1)C1CCCCC1` [Example 78], the IC50 amounted to 4890 nM.

For the compound `C[C@H](Nc1nc(=O)n([C@H]2CCOC[C@H]2F)c(=O)[nH]1)c1ccc(Cl)c(Cl)c1` [Example 321], the IC50 was 1070 nM.

In the case of `CC[C@H](Nc1nc(=O)n(C2CCOCC2)c(=O)[nH]1)C1CCCCC1` [Example 116], the IC50 was determined as 3950 nM.

Take `C[C@H](Nc1nc(=O)n(C2CCOCC2)c(=O)[nH]1)c1cccc(C2CCCCC2)c1` [Example 215]: the IC50 is 880 nM.

As to `COCCN1CCC(n2c(=O)nc(N[C@@H](C)C3CCCCC3)[nH]c2=O)CC1` [Example 33], the IC50 turned out to be 3860 nM.

Consider `COCC(Nc1nc(=O)n(C(C)C)c(=O)[nH]1)c1cc(C)ccc1F` (stereo not drawn) [Example 275], for which the IC50 was determined as 1810 nM.

For `C[C@H](Nc1nc(=O)n(C2CCOCC2)c(=O)[nH]1)c1cccc([C@@H](O)C(F)(F)F)c1` [Example 346], the half-maximal inhibitory concentration (IC50) was 2580 nM.

As for `Cc1ccccc1-c1cccc([C@H](C)Nc2nc(=O)n(C3CCOCC3)c(=O)[nH]2)c1` [Example 225], the IC50 stood at 820 nM.

Turning to `Cc1ccc(C(C)Nc2nc(=O)n(C3CCOCC3)c(=O)[nH]2)cc1` (stereo not drawn) [Example 134], the IC50 came out at 3640 nM.

On to `Cc1cccc([C@H](C)Nc2nc(=O)n([C@H]3CC[C@@H](NC(=O)OC(C)(C)C)CC3)c(=O)[nH]2)c1` [Example 96], for which the IC50 amounted to 4580 nM.

For the compound `C[C@H](Nc1nc(=O)n(CC(F)(F)F)c(=O)[nH]1)C1CCCCC1` [Example 16], the IC50 was determined as 690 nM.

On to `C[C@H](Nc1nc(=O)n(C(C2CC2)C(F)(F)F)c(=O)[nH]1)C1CCCCC1` (stereo partly drawn) [Example 18], for which the IC50 was determined as 480 nM.

For `Cc1cccc([C@@H](Nc2nc(=O)n(C3CCOCC3)c(=O)[nH]2)C2CC2)c1` [Example 335], the IC50 was 620 nM.

On to `CC(C)n1c(=O)nc(N[C@@H](C)c2cccc(C(C)(C)O)c2)[nH]c1=O` [Example 307], for which the IC50 was 1870 nM.

Consider `C[C@H](Nc1nc(=O)n(C2CCOCC2)c(=O)[nH]1)c1cccc(-c2cn[nH]c2)c1` [Example 228], for which the IC50 amounted to 4140 nM.

Turning to `CC(C)n1c(=O)nc(N[C@@H](C)c2ccc(Cl)c(Cl)c2)[nH]c1=O` [Example 325], the IC50 turned out to be 1170 nM.

For `C[C@H](Nc1nc(=O)n(C2CCOCC2)c(=O)[nH]1)c1cccc(C(C)(C)C#N)c1` [Example 276], the IC50 was determined as 150 nM.
